Measurements as given in patent EP0863136B1, “Derivatives of azetidine and pyrrolidine” (Akzo Nobel N.V., priority 1997, dated 1998).

Experiments:
[1] = biological target: T1, human 5-HT2C (Homo sapiens, UniProt P28335); experiment: Binding test, displacement of [3H]-mesulergine, cloned human receptors expressed in 3T3 cells; conditions: cloned human receptor in 3T3 cells; [3H]-mesulergine displacement; read-out: Binding pKi 5HT2C (converted)
T1 construct: expressed in transfected cells; host or cells: 3T3 cells
T1 sequence (P28335 33-458): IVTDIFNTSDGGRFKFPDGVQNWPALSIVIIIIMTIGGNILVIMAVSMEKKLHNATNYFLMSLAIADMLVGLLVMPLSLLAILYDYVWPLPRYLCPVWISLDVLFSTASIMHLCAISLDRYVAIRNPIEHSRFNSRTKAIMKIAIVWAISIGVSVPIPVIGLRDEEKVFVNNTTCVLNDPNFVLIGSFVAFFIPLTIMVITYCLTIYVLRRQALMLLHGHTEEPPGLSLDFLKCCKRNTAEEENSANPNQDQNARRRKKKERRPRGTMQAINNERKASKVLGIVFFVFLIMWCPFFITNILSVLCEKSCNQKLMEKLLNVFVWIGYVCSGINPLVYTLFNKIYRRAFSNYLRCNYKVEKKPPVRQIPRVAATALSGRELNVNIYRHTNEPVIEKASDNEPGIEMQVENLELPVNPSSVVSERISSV
Experimental: (§1) The tests are carried out using cloned human receptors expressed in 3T3 cells according to the protocols described in Stam et al "Genomic organization, coding sequence and functional expression of human 5-HT2 and 5-HT1A receptor genes" - European Journal of Pharmacology - Molecular Pharmacology Section 227: 153-162 (1993) and Stam et al "Genomic organisation and functional expression of the gene encoding the human serotonin 5-HT2C receptor" - European Journal of Pharmacology - Molecular Pharmacology Section 269: 339-348 (1994).

[2] = biological target: T2, 5HT2C receptors (Rattus norvegicus, UniProt P08909); experiment: Penile erection test; format: in vivo; conditions: rats
T2 construct: from tissue; host or cells: whole animal (rat), in vivo
T2 sequence (P08909 33-460): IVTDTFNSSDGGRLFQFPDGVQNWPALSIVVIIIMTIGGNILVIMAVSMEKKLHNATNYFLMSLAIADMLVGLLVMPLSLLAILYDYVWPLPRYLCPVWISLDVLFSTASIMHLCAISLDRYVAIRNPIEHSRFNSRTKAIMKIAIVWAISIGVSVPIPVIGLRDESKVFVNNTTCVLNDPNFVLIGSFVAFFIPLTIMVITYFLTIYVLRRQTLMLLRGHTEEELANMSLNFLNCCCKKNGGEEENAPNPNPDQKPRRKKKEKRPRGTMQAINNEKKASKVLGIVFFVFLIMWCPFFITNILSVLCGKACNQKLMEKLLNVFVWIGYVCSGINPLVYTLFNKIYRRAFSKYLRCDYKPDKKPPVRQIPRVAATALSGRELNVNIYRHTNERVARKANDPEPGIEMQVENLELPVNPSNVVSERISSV
Description: This test, carried out according to the protocol of Berendsen et al ["In volvement of 5-HT1C receptors in drug-induced penile erections in rats" - Psychopharmacology 101: 57-61(1990)] enables the potential in vivo activity at 5HT2C receptors to be assessed.

[3] = DRL-72 test; format: in vivo; conditions: rats, operant performance
Description: This test, carried out according to the protocol of Andrews et al ["Effects of imipramine and mirtazapine on operant performance in rats" - Drug Development Research 32: 58-66 (1994)], gives an indication of potential antidepressant-like activity.

[4] = biological target: T3, human 5-HT2A receptors (Homo sapiens, UniProt P28223); experiment: Binding test, displacement of [3H]-ketanserin, cloned human receptors expressed in 3T3 cells; conditions: cloned human receptor in 3T3 cells; [3H]-ketanserin displacement; read-out: Binding pKi 5HT2A (converted)
T3 construct: expressed in transfected cells; host or cells: 3T3 cells
T3 sequence (P28223 whole entry): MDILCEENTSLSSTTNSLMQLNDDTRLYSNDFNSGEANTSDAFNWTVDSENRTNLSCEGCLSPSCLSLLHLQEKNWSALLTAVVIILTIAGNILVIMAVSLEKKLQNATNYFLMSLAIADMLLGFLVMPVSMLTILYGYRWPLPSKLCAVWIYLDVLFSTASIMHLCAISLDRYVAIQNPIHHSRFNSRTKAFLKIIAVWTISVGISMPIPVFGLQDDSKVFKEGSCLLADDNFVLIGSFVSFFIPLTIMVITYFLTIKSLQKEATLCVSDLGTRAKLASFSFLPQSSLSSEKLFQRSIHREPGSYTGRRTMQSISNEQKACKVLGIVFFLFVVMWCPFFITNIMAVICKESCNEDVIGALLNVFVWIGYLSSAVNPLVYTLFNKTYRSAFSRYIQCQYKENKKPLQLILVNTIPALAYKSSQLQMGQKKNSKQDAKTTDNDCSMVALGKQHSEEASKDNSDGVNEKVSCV
Experimental: as §1

Row | Compound | Ki [1] | Erection of the penis (MED, mg.kg-1) [2] | Increase in pellets earned in DRL-72 (MED, mg.kg-1) [3] | Ki [4]
1 | COc1ccc2c(c1OC1CCNC1)CCC2.Cl (racemic) [Compound 10b, (rac)-3-[(2,3-Dihydro-5-methoxy-1H-inden-4-yl)oxy] pyrrolidine hydrochloride] | 25.1 nM | 1 mg/kg | 10 mg/kg | –
2 | COc1ccc2c(c1O[C@H]1CCNC1)CCC2.Cl [Compound 9a, (S)-(+)-3-[(2,3-Dihydro-5-methoxy-1H-inden-4-yl)oxy]-pyrrolidine hydrochloride] | 10 nM | 0.46 mg/kg | 3 mg/kg | –
3 | COc1ccc2c(c1OC1CNC1)CCC2.Cl [Compound 5d, 3-[(2,3-Dihydro-5-methoxy-1H-inden-4-yl)oxy]-azetidine hydrochloride] | 31.6 nM | 1 mg/kg | 10 mg/kg | 398 nM
